Assay results reported in ChEMBL document CHEMBL1201862, “PubChem BioAssay data set” (2004).
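These data come from cells grown in 96-well plates and exposed to compound for 48 hours at five concentrations. At the GI50, growth is halved.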 Activity calls are given as the source filed them. No stated cut-off is given here; in the data, active = GI50 up to about 1.1 µM and inactive = higher.

Key:
Test in all cases: inhibition of tumour cell growth, NCI panel, 48 h
786-0 = tested on: 786-0
A549 = tested on: A549
ACHN = tested on: ACHN
CAKI-1 = tested on: CAKI-1
CCRF-CEM = tested on: CCRF-CEM
COLO 205 = tested on: COLO 205
DMS-114 = tested on: DMS-114
DMS-273 = tested on: DMS-273
EKVX = tested on: EKVX
HCC 2998 = tested on: HCC 2998
HCT-116 = tested on: HCT-116
HCT-15 = tested on: HCT-15
HL-60 = tested on: HL-60
HOP-18 = tested on: HOP-18
HOP-62 = tested on: HOP-62
HOP-92 = tested on: HOP-92
HT-29 = tested on: HT-29
IGROV-1 = tested on: IGROV-1
K562 = tested on: K562
KM-20L2 = tested on: KM-20L2
KM12 = tested on: KM12
LXFL 529 = tested on: LXFL 529
M14 = tested on: M14
M19-MEL = tested on: M19-MEL
MOLT-4 = tested on: MOLT-4
Malme-3M = tested on: Malme-3M
NCI-H23 = tested on: NCI-H23
NCI-H522 = tested on: NCI-H522
OVCAR-3 = tested on: OVCAR-3
OVCAR-4 = tested on: OVCAR-4
OVCAR-5 = tested on: OVCAR-5
OVCAR-8 = tested on: OVCAR-8
RPMI-8226 = tested on: RPMI-8226
RXF 631 = tested on: RXF 631
SF-295 = tested on: SF-295
SF-539 = tested on: SF-539
SK-MEL-28 = tested on: SK-MEL-28
SK-MEL-2 = tested on: SK-MEL-2
SK-MEL-5 = tested on: SK-MEL-5
SK-OV-3 = tested on: SK-OV-3
SN12C = tested on: SN12C
SNB-19 = tested on: SNB-19
SNB-75 = tested on: SNB-75
SNB-78 = tested on: SNB-78
SR = tested on: SR
SW-620 = tested on: SW-620
U-251 = tested on: U-251
UACC-257 = tested on: UACC-257
UACC-62 = tested on: UACC-62
XF498 = tested on: XF498

SMILES: O=c1cc(-c2ccccc2)oc2cc(OCCCCCCCCCCOc3ccc4c(=O)cc(-c5ccccc5)oc4c3)ccc12
- GI50 (786-0): > 100 µM (inactive)
- GI50 (A549): > 100 µM (inactive)
- GI50 (ACHN): > 100 µM (inactive)
- GI50 (CAKI-1): > 100 µM (inactive)
- GI50 (CCRF-CEM): > 100 µM (inactive)
- GI50 (COLO 205): > 100 µM (inactive)
- GI50 (DMS-114): > 100 µM (inactive)
- GI50 (DMS-273): > 100 µM (inactive)
- GI50 (EKVX): > 100 µM (inactive)
- GI50 (HCC 2998): > 100 µM (inactive)
- GI50 (HCT-116): > 100 µM (inactive)
- GI50 (HCT-15): > 100 µM
- GI50 (HL-60): > 100 µM (inactive)
- GI50 (HOP-18): > 100 µM (inactive)
- GI50 (HOP-62): > 100 µM (inactive)
- GI50 (HOP-92): > 100 µM (inactive)
- GI50 (HT-29): > 100 µM (inactive)
- GI50 (IGROV-1): > 100 µM (inactive)
- GI50 (K562): > 100 µM (inactive)
- GI50 (KM-20L2): > 100 µM (inactive)
- GI50 (KM12): > 100 µM (inactive)
- GI50 (LXFL 529): > 100 µM (inactive)
- GI50 (M14): > 100 µM (inactive)
- GI50 (M19-MEL): > 100 µM (inactive)
- GI50 (MOLT-4): > 100 µM (inactive)
- GI50 (Malme-3M): > 100 µM (inactive)
- GI50 (NCI-H23): > 100 µM (inactive)
- GI50 (NCI-H522): > 100 µM (inactive)
- GI50 (OVCAR-3): > 100 µM (inactive)
- GI50 (OVCAR-4): > 100 µM (inactive)
- GI50 (OVCAR-5): > 100 µM (inactive)
- GI50 (OVCAR-8): > 100 µM (inactive)
- GI50 (RPMI-8226): > 100 µM (inactive)
- GI50 (RXF 631): > 100 µM (inactive)
- GI50 (SF-295): > 100 µM (inactive)
- GI50 (SF-539): > 100 µM (inactive)
- GI50 (SK-MEL-28): > 100 µM (inactive)
- GI50 (SK-MEL-2): > 100 µM (inactive)
- GI50 (SK-MEL-5): > 100 µM (inactive)
- GI50 (SK-OV-3): > 100 µM (inactive)
- GI50 (SN12C): 42.5 µM (inactive)
- GI50 (SNB-19): > 100 µM (inactive)
- GI50 (SNB-75): 56.1 µM (inactive)
- GI50 (SNB-78): > 100 µM (inactive)
- GI50 (SR): > 100 µM (inactive)
- GI50 (SW-620): > 100 µM (inactive)
- GI50 (U-251): > 100 µM (inactive)
- GI50 (UACC-257): > 100 µM (inactive)
- GI50 (UACC-62): > 100 µM (inactive)
- GI50 (XF498): > 100 µM (inactive)
